Tests used:
E. faecalis = assay: Checkerboard assay, mean FICI; assay type: cell-based
Method: (§1) All MIC determinations including those performed in the checkerboard assay were done in cation-adjusted Mueller-Hinton broth (purchased from Becton Dickinson, Oxford UK).
(§2) Initial MIC data were determined by microbroth dilution methods as recommended by CLSI (2012b). Checkerboards were made in accordance with the method given by Pillai et. al., ? Antimicrobial Combinations in Antibiotics, LABORATORY MEDICINE (Lorian Ed., 3rd Ed. (2003)) p. 365-440 as per standard microbroth dilution tests but with agents in combination. […] A final avibactam concentration of 4 mg/L was used throughout the study. Antibacterial agents were combined into microtitre plates using the Evolution III liquid handling system.
(§3) Checkerboard plates were inoculated and incubated in accordance with CLSI guidelines (2012b) at 35±2° C. in ambient air for 16-20 h. MICs were recorded the following day as the lowest concentration or combination of concentrations required to inhibit all visible growth. From the MIC data, FICIs were calculated for each checkerboard according to the method of Meletiadis et. al., Defining Fractional Inhibitory Concentration Index Cutoffs for Additive Interactions Based on Self-Drug Additive Combinations, Monte Carlo Simulation Analysis and in vitro-in vivo Correlation Data for Antifungal Drug Combinations Against Aspergillus fumigatus, AAC 54:602-09 (2010).
(§4) FICI=FICA+FICB=(CA/MICA)+(CB/MICB)
(§5) As each checkerboard gives a number of FICI values, an arithmetic mean is calculated from all values to give the mean FICI for two agents combined against one isolate. Mean FICIs were interpreted by the following criteria given by Odds (2003) which are now the accepted criteria by most journals: […]

S. aureus [1] = assay: Checkerboard assay, mean FICI; assay type: cell-based
Method: as §1, §2, §3, §4, §5

E. coli = assay: Checkerboard assay, mean FICI; assay type: cell-based
Method: as §1, §2, §3, §4, §5

P. aeruginosa = assay: Checkerboard assay, mean FICI; assay type: cell-based
Method: as §1, §2, §3, §4, §5

Gram-positive isolates = assay: MIC alone compared with MIC in presence of Cmax and 0.5×Cmax of colistin, all Gram-positive isolates; assay type: cell-based; conditions: with Cmax and 0.5×Cmax of colistin
Text: A mean FICI was taken from each combination checkerboard and interpreted according to accepted criteria. […] Four highly-expressed AmpC, eight extended-spectrum beta-lactamase (ESBL) including two CTX-M-15 and five KPC producing Enterobacteriaceae and P. aeruginosa were included as well as representatives from each species with basal MICs. Three S. aureus and three E. faecalis were also included.

S. aureus [2] = assay: MIC, CLSI broth microdilution in CAMHB with 0-10% pulmonary surfactant (avibactam fixed at 4 μg/mL in combination); assay type: cell-based, Staphylococcus aureus
Method: The bacterial strains used in this testing were part of the microbiological culture collection housed at AstraZeneca R&D Boston (AstraZeneca Research Collection, designated ARC). The panel of bacterial isolates used for this testing was comprised of five CLSI QC reference strains and the remainder were either recent clinical isolates expressing β-lactamases or isolates from the primary bacterial screening panels.
MIC values were determined using the CLSI broth microdilution methodology with slight variation. Stock compound mother plates were prepared and used to spot 2 μL aliquots of serial 2-fold drug dilutions to columns 1-11 of 96-well daughter plates using a Perkin-Elmer MiniTrak™ MultiPosition dispenser. […] An inoculum volume of 100 μL (5×10E^5 CFU/mL) in CAMHB containing 0, 1, 2.5, 5, or 10% pulmonary surfactant was added using a multichannel Finnpipette® to each well of the 96-well plate.
The minimum inhibitory concentration (MIC) values against each organism/drug combination were determined using broth microdilution methodology according to CLSI guidelines. The recommended reference bacterial strains for each test group and reference compounds were incorporated into each test. For Gram-negatives, the reference bacterial strains were Escherichia coli ATCC 25922, E. coli ATCC 35218, Klebsiella pneumoniae ATCC 700603, and Pseudomonas aeruginosa ATCC 27853. Staphylococcus aureus ATCC 29213 was the reference bacterial strain for the Gram-positives.
MIC values for individual isolates were read visually. The MICs for each compound or combination in pulmonary surfactant was compared to the compound or combination tested in CAMHB alone.

Penetration to human ELF = assay type: in vivo; conditions: epithelial lining fluid (ELF)
[3] = S. aureus ARC12 (CLSI QC strain, ATCC 29213), surfactant 0%
[4] = S. aureus ARC12 (CLSI QC strain, ATCC 29213), surfactant 1%
[5] = S. aureus ARC12 (CLSI QC strain, ATCC 29213), surfactant 2.5%
[6] = S. aureus ARC12 (CLSI QC strain, ATCC 29213), surfactant 5%
[7] = S. aureus ARC12 (CLSI QC strain, ATCC 29213), surfactant 10%
[8] = S. aureus ARC516 (MRSA, quinolone-resistant), surfactant 0%
[9] = S. aureus ARC516 (MRSA, quinolone-resistant), surfactant 1%
[10] = S. aureus ARC516 (MRSA, quinolone-resistant), surfactant 2.5%
[11] = S. aureus ARC516 (MRSA, quinolone-resistant), surfactant 5%
[12] = S. aureus ARC516 (MRSA, quinolone-resistant), surfactant 10%

Compound: CC(C)(O/N=C(\C(=O)N[C@@H]1C(=O)N2C(C(=O)[O-])=C(C[n+]3ccccc3)CS[C@H]12)c1csc(N)n1)C(=O)O [ceftazidime, (6R,7R)-7-[[(2Z)-2-(2-amino-1,3-thiazol-4-yl)-2-(1-hydroxy-2-methyl-1-oxopropan-2-yl)oxyiminoacetyl]amino]-8-oxo-3-(pyridin-1-ium-1-ylmethyl)-5-thia-1-azabicyclo[4.2.0]oct-2-ene-2-carboxylate pentahydrate]
- Mean FICI (E. faecalis; with Lev, isolate 25 E. faecalis Basal MICs): 1.15
- Mean FICI (E. faecalis; with Lev, isolate 26 E. faecalis Basal MICs): 1.20
- Mean FICI (E. faecalis; with Lev, isolate 27 E. faecalis Basal MICs): 0.78
- Mean FICI (E. faecalis; with Lzd, isolate 25 E. faecalis Basal MICs): 1.72
- Mean FICI (E. faecalis; with Lzd, isolate 26 E. faecalis Basal MICs): 0.99
- Mean FICI (E. faecalis; with Lzd, isolate 27 E. faecalis Basal MICs): 1.64
- Mean FICI (E. faecalis; with Tig, isolate 25 E. faecalis Basal MICs): 1.19
- Mean FICI (E. faecalis; with Tig, isolate 26 E. faecalis Basal MICs): 0.73
- Mean FICI (E. faecalis; with Tig, isolate 27 E. faecalis Basal MICs): 1.16
- Mean FICI (E. faecalis; with Tob, isolate 25 E. faecalis Basal MICs): 0.84
- Mean FICI (E. faecalis; with Tob, isolate 26 E. faecalis Basal MICs): 0.74
- Mean FICI (E. faecalis; with Tob, isolate 27 E. faecalis Basal MICs): 0.99
- Mean FICI (E. faecalis; with Van, isolate 25 E. faecalis Basal MICs): 1.63
- Mean FICI (E. faecalis; with Van, isolate 26 E. faecalis Basal MICs): 1.18
- Mean FICI (E. faecalis; with Van, isolate 27 E. faecalis Basal MICs): 1.38
- Mean FICI (S. aureus [1]; with Lev, isolate 22 S. aureus Basal MICs): 0.98
- Mean FICI (S. aureus [1]; with Lev, isolate 23 S. aureus Basal MICs, Penicillinase+): 1.46
- Mean FICI (S. aureus [1]; with Lev, isolate 24 S. aureus Basal MICs, Penicillinase +): 1.21
- Mean FICI (S. aureus [1]; with Lzd, isolate 22 S. aureus Basal MICs): 1.43
- Mean FICI (S. aureus [1]; with Lzd, isolate 23 S. aureus Basal MICs, Penicillinase+): 1.10
- Mean FICI (S. aureus [1]; with Lzd, isolate 24 S. aureus Basal MICs, Penicillinase +): 1.32
- Mean FICI (S. aureus [1]; with Tig, isolate 22 S. aureus Basal MICs): 1.13
- Mean FICI (S. aureus [1]; with Tig, isolate 23 S. aureus Basal MICs, Penicillinase+): 1.27
- Mean FICI (S. aureus [1]; with Tig, isolate 24 S. aureus Basal MICs, Penicillinase +): 1.11
- Mean FICI (S. aureus [1]; with Tob, isolate 22 S. aureus Basal MICs): 1.60
- Mean FICI (S. aureus [1]; with Tob, isolate 23 S. aureus Basal MICs, Penicillinase+): 0.86
- Mean FICI (S. aureus [1]; with Tob, isolate 24 S. aureus Basal MICs, Penicillinase +): 0.84
- Mean FICI (S. aureus [1]; with Van, isolate 22 S. aureus Basal MICs): 1.23
- Mean FICI (S. aureus [1]; with Van, isolate 23 S. aureus Basal MICs, Penicillinase+): 0.99
- Mean FICI (S. aureus [1]; with Van, isolate 24 S. aureus Basal MICs, Penicillinase +): 1.24
- Mean FICI (E. coli; with Col, isolate 4 E. coli Basal MICs): 1.35
- Mean FICI (E. coli; with Col, isolate 5 E. coli CTX-M-15): 1.23
- Mean FICI (E. coli; with Col, isolate 6 E. coli TEM-4): 1.26
- Mean FICI (E. coli; with Col, isolate 7 E. coli SHV-12): 1.66
- Mean FICI (E. coli; with Col, isolate 8 E. coli SHV-2): 1.54
- Mean FICI (E. coli; with Lev, isolate 5 E. coli CTX-M-15): 1.05
- Mean FICI (E. coli; with Lev, isolate 6 E. coli TEM-4): 1.05
- Mean FICI (E. coli; with Lev, isolate 7 E. coli SHV-12): 1.18
- Mean FICI (E. coli; with Lev, isolate 8 E. coli SHV-2): 1.11
- Mean FICI (E. coli; with Tig, isolate 4 E. coli Basal MICs): 1.41
- Mean FICI (E. coli; with Tig, isolate 5 E. coli CTX-M-15): 1.12
- Mean FICI (E. coli; with Tig, isolate 6 E. coli TEM-4): 1.27
- Mean FICI (E. coli; with Tig, isolate 7 E. coli SHV-12): 0.95
- Mean FICI (E. coli; with Tig, isolate 8 E. coli SHV-2): 1.10
- Mean FICI (E. coli; with Tob, isolate 5 E. coli CTX-M-15): 1.05
- Mean FICI (E. coli; with Tob, isolate 6 E. coli TEM-4): 0.99
- Mean FICI (E. coli; with Tob, isolate 7 E. coli SHV-12): 1.19
- Mean FICI (E. coli; with Tob, isolate 8 E. coli SHV-2): 0.91
- Mean FICI (P. aeruginosa; with Col, isolate 16 P. aeruginosa Basal MICs): 1.24
- Mean FICI (P. aeruginosa; with Col, isolate 17 P. aeruginosa Derepressed AmpC): 1.21
- Mean FICI (P. aeruginosa; with Col, isolate 18 P. aeruginosa Derepressed AmpC): 1.23
- Mean FICI (P. aeruginosa; with Col, isolate 19 P. aeruginosa PER): 1.43
- Mean FICI (P. aeruginosa; with Col, isolate 20 P. aeruginosa KPC-2): 1.21
- Mean FICI (P. aeruginosa; with Col, isolate 21 P. aeruginosa KPC-2): 1.34
- Mean FICI (P. aeruginosa; with Lev, isolate 16 P. aeruginosa Basal MICs): 1.19
- Mean FICI (P. aeruginosa; with Lev, isolate 17 P. aeruginosa Derepressed AmpC): 1.10
- Mean FICI (P. aeruginosa; with Lev, isolate 18 P. aeruginosa Derepressed AmpC): 1.21
- Mean FICI (P. aeruginosa; with Lev, isolate 19 P. aeruginosa PER): 0.99
- Mean FICI (P. aeruginosa; with Lev, isolate 20 P. aeruginosa KPC-2): 1.13
- Mean FICI (P. aeruginosa; with Lev, isolate 21 P. aeruginosa KPC-2): 1.12
- Mean FICI (P. aeruginosa; with Tig, isolate 16 P. aeruginosa Basal MICs): 1.05
- Mean FICI (P. aeruginosa; with Tig, isolate 17 P. aeruginosa Derepressed AmpC): 1.23
- Mean FICI (P. aeruginosa; with Tig, isolate 18 P. aeruginosa Derepressed AmpC): 1.15
- Mean FICI (P. aeruginosa; with Tig, isolate 19 P. aeruginosa PER): 1.13
- Mean FICI (P. aeruginosa; with Tig, isolate 20 P. aeruginosa KPC-2): 1.40
- Mean FICI (P. aeruginosa; with Tig, isolate 21 P. aeruginosa KPC-2): 1.23
- Mean FICI (P. aeruginosa; with Tob, isolate 16 P. aeruginosa Basal MICs): 1.11
- Mean FICI (P. aeruginosa; with Tob, isolate 17 P. aeruginosa Derepressed AmpC): 1.05
- Mean FICI (P. aeruginosa; with Tob, isolate 18 P. aeruginosa Derepressed AmpC): 0.89
- Mean FICI (P. aeruginosa; with Tob, isolate 19 P. aeruginosa PER): 0.70
- Mean FICI (P. aeruginosa; with Tob, isolate 20 P. aeruginosa KPC-2): 0.97
- Mean FICI (P. aeruginosa; with Tob, isolate 21 P. aeruginosa KPC-2): 0.97
- MIC alone and in combination (Gram-positive isolates): remained within one doubling dilution in all cases
- MIC (S. aureus [2]; [3]): 8 µg/mL
- MIC (S. aureus [2]; [4]): 16 µg/mL
- MIC (S. aureus [2]; [5]): 16 µg/mL
- MIC (S. aureus [2]; [6]): 8 µg/mL
- MIC (S. aureus [2]; [7]): 8 µg/mL
- MIC (S. aureus [2]; [8]): >64 µg/mL
- MIC (S. aureus [2]; [9]): >64 µg/mL
- MIC (S. aureus [2]; [10]): >64 µg/mL
- MIC (S. aureus [2]; [11]): >64 µg/mL
- MIC (S. aureus [2]; [12]): >64 µg/mL

Compound: NC(=O)[C@@H]1CC[C@@H]2CN1C(=O)N2OS(=O)(=O)[O-].[Na+] [avibactam, [(2S,5R)-2-carbamoyl-7-oxo-1,6-diazabicyclo[3.2.1]octan-6-yl]hydrogen sulfate]
- MIC (S. aureus [2]; [3]): >64 µg/mL
- MIC (S. aureus [2]; [4]): >64 µg/mL
- MIC (S. aureus [2]; [5]): >64 µg/mL
- MIC (S. aureus [2]; [6]): >64 µg/mL
- MIC (S. aureus [2]; [7]): >64 µg/mL
- MIC (S. aureus [2]; [8]): >64 µg/mL
- MIC (S. aureus [2]; [9]): >64 µg/mL
- MIC (S. aureus [2]; [10]): >64 µg/mL
- MIC (S. aureus [2]; [11]): >64 µg/mL
- MIC (S. aureus [2]; [12]): >64 µg/mL
- Kp (Penetration to human ELF): ~0.3
